Results taken from patent US20250151812A1, “METHOD AND INHALER FOR PROVIDING TWO OR MORE […] INHALATION” (Syqe Medical Ltd., priority 2018, published 2025).
Where “and” joins values, the source holds several entries; their conditions need not be identical. Equal values may be shown once.

Legend:
Format in all cases: physicochemical
[1] = Bediol strain Cannabis, two heating durations; aerosol analyzed using UPLC (Table 3, FIG. 17B); details: 180 C., 1.1 L/min; for mg API: in aerosol, 13.5 mg Bediol strain Cannabis; for total (acid + neutral form): sum for the acid and its neutral form, 13.5 mg Bediol
Protocol: In the following related experiment performed by the inventors, samples having 13.5 mg of Bediol strain Cannabis (Bedrocan, Holland) were tested using two operation profiles and compared to a raw material. The samples were heated to a temperature of 180° C. under an airflow rate of 1.1 liter/minute. In the first operation profile, the heating duration was 1.5 seconds; in the second operation profile, the heating duration was 2.5 seconds. Aerosol was collected, extracted and analyzed using UPLC. As can be observed from this example, under certain conditions, lengthening the heating duration increased the CBD/total THC ratio (from about 0.79 in the first operation profile to about 0.96 in the second operation profile). As can also be observed from this example, under certain conditions, lengthening the heating duration released higher amounts of all active substances tested (CBDA, CBD, THCA, Δ9-THC). (API-active pharmaceutical ingredient).

[2] = FIG. 6: CBDA/CBD and THCA/Δ9-THC ratios at two operation profiles; aerosol analyzed using UPLC; details: 13.5 mg cannabis; 180° C., airflow 1 liter/minute; 1.5 seconds versus 2.5 second
Protocol: Reference is now made to FIG. 6, which is a bar chart of the ratios between CBDA/CBD and THCA/Δ9-THC received at various operation profiles according to some embodiments of the invention. Samples having 13.5 mg of a defined type of cannabis were tested at two operation profiles. The samples were heated to a temperature of 180° C. under an airflow of 1 liter/minute) for 1.5 seconds and 2.5 second. Aerosol was collected, extracted and analyzed using UPLC.

[3] = Effect of airflow rate on decarboxylation of THCA; aerosol from heated Bedrocan cannabis samples analyzed in UPLC; details: 13.5 mg Bedrocan sample, 185° C., 1620 ms
Protocol: In the following experiment performed by the inventors, the effect of airflow rate on decarboxylation of THCA was tested. 14 samples (7 samples tested in each of the profiles) of 13.5 mg each of Bedrocan strain (Bedrocan, Holland) were heated for 1620 ms to a temperature of 185° C. In a first operation profile (upper table), the rate of flow through the sample was set to 1.1 L/min; in a second operation profile (lower table), the rate of airflow through the sample was set to 0.85 L/min. Aerosol was collected and extracted and analyzed in UPLC (Ultra performance liquid chromatography) for the presence of THCA and Δ9-THC. As can be observed, in this example, under certain conditions, increasing the rate of flow through the sample increased the percentage of THCA in the aerosol. (As shown below, the percentage of THCA was calculated as the amount of THCA divided by the total amount of both THCA and Δ9-THC.) The graph of FIG. 17A presents the results shown in the table below.

[4] = Various operation profiles (heating temperature, airflow rate, heating duration); aerosol analyzed in UPLC for THCA and Δ9-THC
Protocol: In another experiment performed by the inventors, various operation profiles were tested. In lines 1-9 of the table below, a change in the heating temperature was tested, while the rate of airflow and the heating duration remained constant. Aerosol was collected and extracted and analyzed in UPLC for the presence of THCA and Δ9-THC. A graph presenting the results obtained for the various heating temperatures is shown in FIG. 7 and further discussed below; in lines 10-14 of the table, a change in the rate of airflow was tested, while the temperature and the heating duration remained constant; in lines 17-19 of the table, a change in the heating duration was tested, while the temperature and rate of airflow remained constant. As can be observed, in this example, under certain conditions, increasing the heating temperature (while maintaining other parameters (flow rate, duration of heating) constant) reduced the percentage of THCA released; lengthening the heating duration (while maintaining other parameters constant) reduced the percentage of THCA released. (As shown below, the percentage of THCA was calculated as the amount of THCA divided by the total amount of both THCA and Δ9-THC.)
Reference is now made to FIG. 7 which is a graph showing the effect of the temperature on the relative amount of THCA vaporized. The experiment procedure and the results are also discussed above and presented in Table 2 Samples having 13.5 mg of a defined type of cannabis were tested by applying air at 1.1 liter/minute for 1.5 seconds at various temperatures from 160°° C. to 200° C. The relative amount of THCA were measured against the total amounts of Δ9-THC+THCA. […] Accordingly, by selecting the temperature and/or the time-temperature profile, the amount of THCA provided during inhalation may be controlled (e.g., selected by the user).

SMILES	mg API ([1]; heating duration 1500 ms)	mg API ([1]; heating duration 2500 ms)	total (acid + neutral form) ([1]; heating duration 1500 ms)	total (acid + neutral form) ([1]; heating duration 2500 ms)	amount of acids left after vaporization, by heating duration [2]	Δ9-THC ([3]; flow rate 0.85 L/min)	Δ9-THC ([3]; flow rate 1.1 L/min)	Δ9-THC ([4]; 13.5 mg cannabis, 1.1 L/min, 1500 ms, 160° C.)	Δ9-THC ([4]; 13.5 mg cannabis, 1.1 L/min, 1500 ms, 175° C.)	Δ9-THC ([4]; 13.5 mg cannabis, 1.1 L/min, 1500 ms, 200° C.)	Δ9-THC ([4]; 175 C., 1500 ms, flow 1.2 L/min)	Δ9-THC ([4]; 175 C., 1500 ms, flow 1.3 L/min)	Δ9-THC ([4]; 185° C., 1.1 L/min, heating 600 ms)	Δ9-THC ([4]; 185° C., 1.1 L/min, heating 800 ms)	Δ9-THC ([4]; 185° C., 1.1 L/min, heating 1000 ms)
C=C(C)[C@@H]1CCC(C)=C[C@H]1c1c(O)cc(CCCCC)cc1O [CBD, Cannabidiol, reference compound]	0.201 mg	0.477 mg	–	–	–	–	–	–	–	–	–	–	–	–	–
C=C(C)[C@@H]1CCC(C)=C[C@H]1c1c(O)cc(CCCCC)c(C(=O)O)c1O [CBDA, cannabidiolic acid]	0.125 mg	0.188 mg	0.311	0.642	the longer the operation profile the less amount of acids	–	–	–	–	–	–	–	–	–	–
CCCCCc1cc(O)c2c(c1)OC(C)(C)[C@@H]1CCC(C)=C[C@@H]21 [Δ9-THC, Δ9-tetrahydrocannabinol, reference compound]	0.254 mg	0.498 mg	–	–	–	0.521 mg and 0.559 mg and 0.529 mg and 0.486 mg and 0.434 mg and 0.357 mg and 0.365 mg	0.462 mg and 0.452 mg and 0.445 mg and 0.484 mg and 0.527 mg and 0.431 mg and 0.587 mg	0.220 mg and 0.201 mg and 0.208 mg	0.475 mg and 0.461 mg and 0.478 mg	0.972 mg and 0.831 mg and 0.790 mg	0.467 mg and 0.423 mg	0.459 mg and 0.468 mg and 0.440 mg	0.093 mg	0.315 mg	0.620 mg
